Laboratory results reported in PubChem BioAssay (NCI).
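Each compound was tested at five concentrations against cells in 96-well plates for 48 hours. GI50 = concentration required for 50% inhibition of growth. TGI is the concentration that stops growth completely.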

Columns and labels:
Assay in all cases: inhibition of tumour cell growth, NCI panel, 48 h
A549 NSCLC = test system: A549 NSCLC
CCRF-CEM leukemia = test system: CCRF-CEM leukemia
HOP-62 NSCLC = test system: HOP-62 NSCLC
HT29 colon = test system: HT29 colon
KM12 colon = test system: KM12 colon
PC-3 prostate = test system: PC-3 prostate
SK-MEL-2 melanoma = test system: SK-MEL-2 melanoma
SNB-75 CNS = test system: SNB-75 CNS
SW-620 colon = test system: SW-620 colon
UACC-62 melanoma = test system: UACC-62 melanoma

| SMILES | GI50 (A549 NSCLC) [µM] | TGI (A549 NSCLC) [µM] | GI50 (CCRF-CEM leukemia) [µM] | TGI (CCRF-CEM leukemia) [µM] | GI50 (HOP-62 NSCLC) [µM] | TGI (HOP-62 NSCLC) [µM] | GI50 (HT29 colon) [µM] | TGI (HT29 colon) [µM] | GI50 (KM12 colon) [µM] | TGI (KM12 colon) [µM] | GI50 (PC-3 prostate) [µM] | TGI (PC-3 prostate) [µM] | GI50 (SK-MEL-2 melanoma) [µM] | TGI (SK-MEL-2 melanoma) [µM] | GI50 (SNB-75 CNS) [µM] | TGI (SNB-75 CNS) [µM] | GI50 (SW-620 colon) [µM] | TGI (SW-620 colon) [µM] | GI50 (UACC-62 melanoma) [µM] | TGI (UACC-62 melanoma) [µM] |
| --- | --- | --- | --- | --- | --- | --- | --- | --- | --- | --- | --- | --- | --- | --- | --- | --- | --- | --- | --- | --- |
| N#Cc1c(N2CCOCC2)nc(=S)[nH]c1-c1ccco1 | 14.9 | > 100 | 5.52 | 52 | 2.95 | 9.16 | 9.56 | > 100 | 10.4 | > 100 | 0.19 | 3.17 | 2.38 | 33.6 | 2.15 | 55.6 | 23.5 | > 100 | 2.91 | 32.7 |
| COc1ccc(-c2[nH]c3ccccc3c2-c2ccc(OC)cc2)cc1 | 7.14 | 30.3 | 2.85 | > 100 | 10.2 | 26.2 | 2.99 | 11.9 | 2.48 | 6.64 | 4.07 | 25.3 | 8.31 | 25.6 | 1.47 | 6.61 | 4.53 | 36.8 | 6.25 | 22 |
| O=C1c2c(c3c4ccccc4[nH]c3c3ccc4ccccc4c23)C(=O)N1CCN1CCNCC1 | 1.16 | 2.64 | 1.33 | 4.22 | 1.81 | 3.69 | 1.72 | 3.27 | 1.5 | 3.07 | 1.68 | 3.67 | 2.03 | 4.7 | 1.47 | 2.82 | 1.49 | 3.16 | 1.86 | 3.77 |
| c1cnn2ncc(-c3ccnc(NCCCN4CCOCC4)n3)c2c1 | 7.7 | > 25 | 7.73 | > 25 | 5.76 | > 16.6 | 7.43 | > 25 | 6.85 | > 21.4 | 8.71 | > 25 | 5.12 | 13.9 | 5.52 | 12.7 | 6.66 | > 25 | 5.86 | 18.4 |
| O=C(NN1C(=O)CSC12CCCCC2)c1[nH]c2ccc(Br)cc2c1-c1ccccc1 | 15 | 30.5 | 19.6 | 52.8 | 23.6 | 51.4 | 13.9 | 31.5 | 16.9 | 33.4 | 16.5 | 32.2 | 36.2 | > 100 | 15.9 | 33.7 | 34.7 | > 100 | 10.9 | 39.8 |
| COc1ccc(-c2cc(-c3ccc(C)cc3)nc3nc(=S)[nH]c(N)c23)cc1 | 24.3 | > 100 | 18.8 | 64.8 | 18.8 | 40.6 | 19.1 | > 100 | 16.2 | 36 | 37.7 | > 100 | 19 | 41 | 66.2 | > 100 | 17.9 | 33.9 | 20.6 | 45.6 |
| CC1=C2[C@@H](CC1)[C@]1(C)O[C@@](c3ccccc3)(C[C@H]1OC(=O)CO)[C@H]2OC(=O)/C=C/c1ccccc1 | 14.5 | 38 | 16.9 | 56.9 | 17.1 | 37.3 | 15.1 | 34.1 | 14.8 | 34.7 | 8.56 | 31.5 | 16.8 | 38.4 | 14.2 | 53.6 | 21.9 | 60 | 15.3 | 36 |
| COc1cccc(OC(=O)c2ccc(C(F)(F)F)nc2Nc2cc(Cl)ccc2C)c1 | 6.1 | > 100 | 2.12 | 5.13 | 15.6 | 36.1 | 4.28 | > 100 | 20.6 | 50 | 4.47 | > 100 | 12.9 | 50.2 | 9.04 | > 100 | 5.31 | 50.7 | 3.3 | 20 |
| O=[N+]([O-])c1ccc(C=Cc2ccccc2)cc1.[C-]#[O+].[C-]#[O+].[C-]#[O+].[Cr] | 8.69 | > 100 | 2.72 | > 100 | > 100 | > 100 | 29.5 | > 100 | 13.7 | > 100 | 43.3 | > 100 | 57.7 | > 100 | 4.46 | 37.8 | 79.5 | > 100 | 3.01 | 46.9 |
| OCC1OC(n2cnc3c(N/N=C\c4ccccn4)ncnc32)C(O)C1O (stereo not given) | 0.399 | > 100 | 0.0338 | > 100 | 0.289 | 2.14 | 0.417 | > 100 | 0.434 | > 100 | 0.361 | > 33.6 | 0.611 | > 100 | 0.613 | 12.9 | 0.422 | > 100 | 0.866 | 4.05 |
| CCOc1ccccc1C(=O)N1CCN(c2cc(Cl)cc(Cl)c2)CC1 | 0.0429 | 15.8 | 0.0357 | 33.5 | 0.0416 | 15.8 | 0.0316 | 2.29 | 0.0361 | 13.6 | 0.0346 | 12.6 | 1.13 | 18.4 | 0.474 | 14.3 | 0.0415 | 15.8 | 0.0203 | 16 |
| OCc1ccc(N2CCCC2c2ccccc2)cc1Cl (stereo not given) | 2.87 | 14.9 | 6.44 | 39.7 | 3.69 | 15.8 | 3.37 | 14.3 | 4.17 | 19.4 | 8.41 | 29 | 2.31 | 6.97 | 3.28 | 29 | 2.8 | 27.7 | 0.665 | 4.01 |
